# PubChem BioAssay AID1259407 (Chemical Carcinogenesis Research Information System (CCRIS), 2018)
# Active and inactive are the calls of the source. No rule for the calls is given here.
# Tested on: CCRIS mutagenicity, Ames/micronucleus/aberration tests
# Test: CCRIS mutagenicity studies
# [1] = Test System: AMES SALMONELLA TYPHIMURIUM, Strain/Indicator: TA100, Metabolic Activation: NONE, Method: STANDARD PLATE
# [2] = Test System: AMES SALMONELLA TYPHIMURIUM, Strain/Indicator: TA102, Metabolic Activation: NONE, Method: STANDARD PLATE
# [3] = Test System: AMES SALMONELLA TYPHIMURIUM, Strain/Indicator: TA98, Metabolic Activation: NONE, Method: PREINCUBATION
# [4] = Test System: AMES SALMONELLA TYPHIMURIUM, Strain/Indicator: TA100, Metabolic Activation: NONE, Method: PREINCUBATION
compound,measurement,setting,value
CC(C(=O)O)c1cccc(C(=O)c2ccccc2)c1 (stereo not drawn),mutagenic call,"Test System: AMES SALMONELLA TYPHIMURIUM, Strain/Indicator: TA97A, Metabolic Activation: NONE, Method: STANDARD PLATE",inactive; negative
same,mutagenic call,"Test System: AMES SALMONELLA TYPHIMURIUM, Strain/Indicator: TA97A, Metabolic Activation: RAT, LIVER, S-9, PHENOBARBITAL, Method: STANDARD PLATE",inactive; negative
same,mutagenic call,[1],inactive; negative
same,mutagenic call,"Test System: AMES SALMONELLA TYPHIMURIUM, Strain/Indicator: TA100, Metabolic Activation: RAT, LIVER, S-9, PHENOBARBITAL, Method: STANDARD PLATE",inactive; negative
same,mutagenic call,[2],inactive; negative
same,mutagenic call,"Test System: AMES SALMONELLA TYPHIMURIUM, Strain/Indicator: TA102, Metabolic Activation: RAT, LIVER, S-9, PHENOBARBITAL, Method: STANDARD PLATE",inactive; negative
Nc1nc(=S)c2[nH]cnc2[nH]1,mutagenic call,"End Point: IN VITRO CHROMOSOMAL ABERRATIONS, Test System: HUMAN HCT116/3-6 CELLS, Metabolic Activation: NONE",active; positive
same,mutagenic call,"End Point: IN VITRO CHROMOSOMAL ABERRATIONS, Test System: HUMAN HCT116 CELLS, Metabolic Activation: NONE",active; positive
same,mutagenic call,"End Point: IN VITRO CHROMOSOMAL ABERRATIONS, Test System: HUMAN MT1 CELLS, Metabolic Activation: NONE",active; positive
same,mutagenic call,"End Point: IN VITRO CHROMOSOMAL ABERRATIONS, Test System: HUMAN TK6 CELLS, Metabolic Activation: NONE",active; positive
C1=CC2OC2c2ncccc21 (stereo not drawn),mutagenic call,[1],inactive; negative
same,mutagenic call,"Test System: AMES SALMONELLA TYPHIMURIUM, Strain/Indicator: TA100, Metabolic Activation: RAT, LIVER, S-9, AROCLOR 1254 (10% OR 20%), Method: STANDARD PLATE",active; positive
C=CC1CC2C=CC1C2 (stereo not drawn),mutagenic call,[3],inactive; negative
same,mutagenic call,"Test System: AMES SALMONELLA TYPHIMURIUM, Strain/Indicator: TA98, Metabolic Activation: RAT LIVER S-9, AROCLOR 1254, Method: PREINCUBATION",inactive; negative
same,mutagenic call,[4],inactive; negative
same,mutagenic call,"Test System: AMES SALMONELLA TYPHIMURIUM, Strain/Indicator: TA100, Metabolic Activation: RAT LIVER S-9, AROCLOR 1254, Method: PREINCUBATION",inactive; negative
same,mutagenic call,"Test System: AMES SALMONELLA TYPHIMURIUM, Strain/Indicator: TA1535, Metabolic Activation: NONE, Method: PREINCUBATION",inactive; negative
same,mutagenic call,"Test System: AMES SALMONELLA TYPHIMURIUM, Strain/Indicator: TA1535, Metabolic Activation: RAT LIVER S-9, AROCLOR 1254, Method: PREINCUBATION",inactive; negative
same,mutagenic call,"Test System: AMES SALMONELLA TYPHIMURIUM, Strain/Indicator: TA1537, Metabolic Activation: NONE, Method: PREINCUBATION",inactive; negative
same,mutagenic call,"Test System: AMES SALMONELLA TYPHIMURIUM, Strain/Indicator: TA1537, Metabolic Activation: RAT LIVER S-9, AROCLOR 1254, Method: PREINCUBATION",inactive; negative
same,mutagenic call,"Test System: AMES SALMONELLA TYPHIMURIUM, Strain/Indicator: TA1538, Metabolic Activation: NONE, Method: PREINCUBATION",inactive; negative
same,mutagenic call,"Test System: AMES SALMONELLA TYPHIMURIUM, Strain/Indicator: TA1538, Metabolic Activation: RAT LIVER S-9, AROCLOR 1254, Method: PREINCUBATION",inactive; negative
same,mutagenic call,"Test System: CHINESE HAMSTER OVARY, Strain/Indicator: CHO-K1-BH4 (HGPRT)/6-THIOGUANINE, Metabolic Activation: NONE",inactive; negative
same,mutagenic call,"Test System: CHINESE HAMSTER OVARY, Strain/Indicator: CHO-K1-BH4 (HGPRT)/6-THIOGUANINE, Metabolic Activation: RAT LIVER S-9, AROCLOR 1254",inactive; negative
CN(Cc1cnc2nc(N)nc(N)c2n1)c1ccc(C(=O)N[C@@H](CCC(=O)O)C(=O)O)cc1,mutagenic call,"End Point: IN VITRO MICRONUCLEUS, Test System: V79 CELLS, Metabolic Activation: NONE",inactive; negative
same,mutagenic call,"End Point: IN VIVO CHROMOSOMAL ABERRATIONS, Test System: BONE MARROW, Species: MOUSE, Strain/Sex: SWISS/MALE, FEMALE, Route: INTRAPERITONEAL",active; positive (structural changes)
same,mutagenic call,"End Point: IN VIVO MICRONUCLEUS, Test System: BONE MARROW, Species: MOUSE, Strain/Sex: SWISS/MALE, FEMALE, Route: INTRAPERITONEAL",active; positive
same,mutagenic call,"End Point: In vitro micronucleus, Test System: Human lymphoblastoid TK6 cells, Metabolic Activation: None",active; positive (p<0.001)
same,mutagenic call,[3],inactive; negative
same,mutagenic call,"Test System: AMES SALMONELLA TYPHIMURIUM, Strain/Indicator: TA98, Metabolic Activation: NONE, Method: STANDARD PLATE",inactive; negative
same,mutagenic call,"Test System: AMES SALMONELLA TYPHIMURIUM, Strain/Indicator: TA98, Metabolic Activation: S-9, Method: PREINCUBATION",inactive; negative
same,mutagenic call,"Test System: AMES SALMONELLA TYPHIMURIUM, Strain/Indicator: TA98, Metabolic Activation: S-9, Method: STANDARD PLATE",inactive; negative
same,mutagenic call,[4],inactive; negative
same,mutagenic call,[1],inactive; negative
same,mutagenic call,"Test System: AMES SALMONELLA TYPHIMURIUM, Strain/Indicator: TA100, Metabolic Activation: S-9, Method: PREINCUBATION",inactive; negative
same,mutagenic call,"Test System: AMES SALMONELLA TYPHIMURIUM, Strain/Indicator: TA100, Metabolic Activation: S-9, Method: STANDARD PLATE",inactive; negative
same,mutagenic call,[2],inactive; negative
same,mutagenic call,"Test System: AMES SALMONELLA TYPHIMURIUM, Strain/Indicator: TA1537, Metabolic Activation: NONE, Method: STANDARD PLATE",inactive; negative
same,mutagenic call,"Test System: CHINESE HAMSTER V-79, Strain/Indicator: V-79 (HGPRT)/6-THIOGUANINE, Metabolic Activation: NONE",inactive; negative
same,mutagenic call,"Test System: CHINESE HAMSTER V-79, Strain/Indicator: V-79/6-THIOGUANINE, Metabolic Activation: NONE, Method: SUSPENSION/PLATE",inactive; negative
same,mutagenic call,"Test System: CHINESE HAMSTER V-79, Strain/Indicator: V-79/6-THIOGUANINE, Metabolic Activation: RAT, LIVER, HEPATOCYTES, Method: SUSPENSION/PLATE",inactive; negative
same,mutagenic call,"Test System: E. COLI, Strain/Indicator: WP2 (HCR), Metabolic Activation: NONE, Method: STANDARD PLATE",inactive; negative
same,mutagenic call,"Test System: E. COLI, Strain/Indicator: WP2 (HCR), Metabolic Activation: S-9, Method: STANDARD PLATE",inactive; negative
same,mutagenic call,"Test System: E. COLI, Strain/Indicator: WP2, Metabolic Activation: NONE, Method: STANDARD PLATE",active; positive
same,mutagenic call,"Test System: MOUSE LYMPHOMA, Strain/Indicator: L5178Y (TK+/TK-), Metabolic Activation: NONE, Method: MICROWELL",active; positive
same,mutagenic call,"Test System: MOUSE LYMPHOMA, Strain/Indicator: L5178Y (TK+/TK-), Metabolic Activation: NONE, Method: SUSPENSION/PLATE",active; positive
same,mutagenic call,"Test System: MOUSE LYMPHOMA, Strain/Indicator: L5178Y (TK+/TK-), Metabolic Activation: RAT, LIVER, S-9, AROCLOR 1254, Method: SUSPENSION/PLATE",active; positive
same,mutagenic call,"Test System: MOUSE LYMPHOMA, Strain/Indicator: L5178Y (TK+/TK-), Metabolic Activation: S-9, Method: MICROWELL",active; positive
